Measurements as given in patent publication US20150274661A1, “INDOL-AMIDE COMPOUNDS AS BETA-AMYLOID INHBITORS” (Hoffmann-La Roche Inc., priority 2012, published 2015).

Tested on: Aβ42 secretion
Test: Cellular γ-secretase assay (inhibition of Aβ42 secretion)
Type: cell-based
Conditions: human neuroglioma H4 cells overexpressing human APP, 22 hours incubation
Procedure: Cellular γ-Secretase Assay
The compounds were investigated in accordance with the test given hereinafter.
Human neuroglioma H4 cells overexpressing human APP were plated at 30,000 cells/well/200 μL in 96-well plates in IMDM media containing 10% FCS, […] Hygromycin B and incubated for 2 hours at 37° C., 5% CO2 prior to adding test compounds.
Compounds for testing were dissolved in 100% Me2SO yielding in a 10 mM stock solution. Typically 12 μL of these solutions were further diluted in 1000 μL of IMDM media (w/o FCS). Subsequent 1:1 dilutions gave a ten point dose response curve. 100 μL of each dilution was added to the cells in 96-well plates. Appropriate controls using vehicle only and reference compound were applied to this assay. The final concentration of Me2SO was 0.4%.
After incubation for 22 hours at 37° C., 5% CO2, 50 μL supernatant was transferred into round-bottom 96-well polypropylene plates for detection of Aβ42. 50 μL assay buffer (50 mM Tris/Cl, pH 7.4, 60 mM NaCl, 0.5% BSA, 1% TWEEN 20) was added to the wells followed by the addition of 100 μL of detection antibody (ruthenylated BAP15 0.0625 μg/mL in assay buffer). 50 μL of a premix of capture antibody (biotinylated 6E10 antibody, 1 μg/mL) and Streptavidin-coated magnetic beads (Dynal M-280, 0.125 mg/mL) were preincubated for 1 hour at room temperature before adding the assay plates. Assay plates were incubated on a shaker for 3 hours at room temperature and finally read in the Bioveris M8 Analyser according to the manufacturer's instructions (Bioveris).
IC50 values for inhibition of Aβ42 secretion were calculated by nonlinear regression fit analysis using XLfit 4.0 software (IDBS).

Row | SMILES | EC50 (Homo sapiens, 22 h) [nM] | EC50 [nM]
1 | CC(c1ccc2[nH]c(C(=O)Nc3cc(F)cc(F)c3)cc2c1)C1CCN(CC#N)C1 (centres unmarked) [Example 94, 5-(1-(1-(Cyanomethyl)pyrrolidin-3-yl)ethyl)-N-(3,5-difluorophenyl)-1H-indole-2-carboxamide] | 1340 | –
2 | CS(=O)(=O)N1CCCC(c2ccc3[nH]c(C(=O)Nc4cc(F)cc(F)c4)cc3c2)C1 (centres unmarked) [Example 49, 5-(1-Methanesulfonyl-piperidin-3-yl)-1H-indole-2-carboxylic acid (3,5-difluoro-phenyl)-amide] | 148 | –
3 | CCN1CCC(c2ccc3[nH]c(C(=O)Nc4ccc(F)cc4)cc3c2)CC1 [Example 42, 5-[1-Ethyl-piperidin-4-yl]-1H-indole-2-carboxylic acid (4-fluoro-phenyl)-amide] | 1910 | –
4 | CN1CCC(c2ccc3[nH]c(C(=O)Nc4cc(F)cc(C#N)c4)cc3c2)C1 (centres unmarked) [Example 6, N-(3-Cyano-5-fluorophenyl)-5-(1-methylpyrrolidin-3-yl)-1H-indole-2-carboxamide] | 1420 | –
5 | CC(=O)N1CCC(C(C)c2ccc3[nH]c(C(=O)Nc4cc(F)cc(F)c4)cc3c2)C1 (centres unmarked) [Example 95, 5-(1-(1-Acetylpyrrolidin-3-yl)ethyl)-N-(3,5-difluorophenyl)-1H-indole-2-carboxamide] | 2480 | –
6 | CC(C)N1CCC(c2ccc3[nH]c(C(=O)Nc4cccc(C(F)(F)F)c4)cc3c2)CC1 [Example 22, 5-(1-Isopropyl-piperidin-4-yl)-1H-indole-2-carboxylic acid (3-trifluoromethyl-phenyl)-amide] | 2270 | –
7 | CN1CCCC(c2ccc3[nH]c(C(=O)Nc4cc(F)cc(F)c4)cc3c2)C1 (centres unmarked) [Example 59, 5-(1-Methyl-piperidin-3-yl)-1H-indole-2-carboxylic acid (3,5-difluoro-phenyl)-amide] | 183 | –
8 | O=C(Nc1cccc(F)c1)c1cc2cc([C@@H]3CCCN(CCO)C3)ccc2[nH]1 [Example 115, (S)—N-(3-Fluorophenyl)-5-(1-(2-hydroxyethyl)piperidin-3-yl)-1H-indole-2-carboxamide] | 1500 | –
9 | CC(c1ccc2[nH]c(C(=O)Nc3cc(F)cc(F)c3)cc2c1)C1CCNC1 (centres unmarked) [Example 92, N-(3,5-Difluorophenyl)-5-(1-(pyrrolidin-3-yl)ethyl)-1H-indole-2-carboxamide] | 1180 | –
10 | CC(C)N1CCC(c2ccc3[nH]c(C(=O)Nc4ccc(C(C)(C)C)cc4)cc3c2)CC1 [Example 27, 5-(1-Isopropyl-piperidin-4-yl)-1H-indole-2-carboxylic acid (4-tert-butyl-phenyl)-amide] | 8360 | –
11 | CN1CCC(c2ccc3[nH]c(C(=O)Nc4cccc(F)c4)cc3c2)C1 (centres unmarked) [Example 4, N-(3-Fluorophenyl)-5-(1-methylpyrrolidin-3-yl)-1H-indole-2-carboxamide] | 402 | –
12 | CC(C)N1CCC(c2ccc3[nH]c(C(=O)Nc4ccc(F)cc4)cc3c2)CC1 [Example 48, 5-(1-Isopropyl-piperidin-4-yl)-1H-indole-2-carboxylic acid (4-fluoro-phenyl)-amide] | 2510 | –
13 | O=C(Nc1cccc(F)c1)c1cc2cc(C3CCCN(C4CC4)C3)ccc2[nH]1 (centres unmarked) [Example 72, 5-(1-Cyclopropylpiperidin-3-yl)-N-(3-fluorophenyl)-1H-indole-2-carboxamide] | 1110 | –
14 | Cn1cnc(S(=O)(=O)N2CCCC(c3ccc4[nH]c(C(=O)Nc5cc(F)cc(F)c5)cc4c3)C2)c1 (centres unmarked) [Example 58, 5-[1-(1-Methyl-1H-imidazole-4-sulfonyl)-piperidin-3-yl]-1H-indole-2-carboxylic acid (3,5-difluoro-phenyl)-amide] | 744 | –
15 | Cc1cccc(NC(=O)c2cc3cc(C4CCCN(C(C)C)C4)ccc3[nH]2)c1 (centres unmarked) [Example 33, 5-(1-Isopropyl-piperidin-3-yl)-1H-indole-2-carboxylic acid m-tolylamide] | 1580 | –
16 | COCCN1CCCC(c2ccc3[nH]c(C(=O)Nc4cccc(F)c4)cc3c2)C1 (centres unmarked) [Example 66, N-(3-Fluorophenyl)-5-(1-(2-methoxyethyl)piperidin-3-yl)-1H-indole-2-carboxamide] | 727 | –
17 | CC(c1ccc2[nH]c(C(=O)Nc3cc(F)cc(F)c3)cc2c1)N1CCCCC1=O (centres unmarked) [Example 89, 5-[1-(2-Oxo-piperidin-1-yl)-ethyl]-1H-indole-2-carboxylic acid (3,5-difluoro-phenyl)-amide] | 4400 | –
18 | CN1CC[C@@H](c2ccc3[nH]c(C(=O)Nc4cc(F)cc(F)c4)cc3c2)C1 [Example 102, 5-((S)-1-Methyl-pyrrolidin-3-yl)-1H-indole-2-carboxylic acid (3,5-difluoro-phenyl)-amide] | – | 300

Row | SMILES | EC50 (Homo sapiens, 22 h) [nM] | EC50 [nM]
19 | N#Cc1ccc(N2CCC(c3ccc4[nH]c(C(=O)Nc5cncc(F)c5)cc4c3)C2)nn1 (centres unmarked) [Example 83, 5-(1-(6-Cyanopyridazin-3-yl)pyrrolidin-3-yl)-N-(5-fluoropyridin-3-yl)-1H-indole-2-carboxamide] | 3340 | –
20 | CC(C)N1CCC(c2ccc3[nH]c(C(=O)Nc4cncc(F)c4)cc3c2)C1 (centres unmarked) [Example 76, N-(5-Fluoropyridin-3-yl)-5-(1-isopropylpyrrolidin-3-yl)-1H-indole-2-carboxamide] | 796 | –
21 | CC(CN1CCCC1)c1ccc2[nH]c(C(=O)Nc3cccc(F)c3)cc2c1 (centres unmarked) [Example 99, N-(3-Fluorophenyl)-5-(1-(pyrrolidin-1-yl)propan-2-yl)-1H-indole-2-carboxamide] | 1240 | –
22 | N#CCN1CCC(c2ccc3c(c2)cc(C(=O)Nc2cncc(F)c2)n3CC#N)C1 (centres unmarked) [Example 81, 1-Cyanomethyl-5-(1-cyanomethyl-pyrrolidin-3-yl)-1H-indole-2-carboxylic acid (5-fluoro-pyridin-3-yl)-amide] | 4250 | –
23 | CN1CC[C@H](c2ccc3[nH]c(C(=O)Nc4cc(F)cc(F)c4)cc3c2)C1 [Example 103, 5-((R)-1-Methyl-pyrrolidin-3-yl)-1H-indole-2-carboxylic acid (3,5-difluoro-phenyl)-amide] | – | 374
24 | CC(C)C(=O)N1CC[C@H](c2ccc3[nH]c(C(=O)Nc4cc(F)cc(F)c4)cc3c2)C1 [Example 105, 5-((R)-1-Isobutyryl-pyrrolidin-3-yl)-1H-indole-2-carboxylic acid (3,5-difluoro-phenyl)-amide] | 1210 | –
25 | O=C(Nc1cc(F)cc(F)c1)c1cc2cc([C@@H]3CCN(CC(F)(F)F)C3)ccc2[nH]1 [Example 104, 5-[(S)-1-(2,2,2-Trifluoro-ethyl)-pyrrolidin-3-yl]-1H-indole-2-carboxylic acid (3,5-difluoro-phenyl)-amide] | 528 | –
26 | O=C(Nc1cccc(F)c1)c1cc2cc([C@H]3CCCN(CCO)C3)ccc2[nH]1 [Example 114, (R)—N-(3-Fluorophenyl)-5-(1-(2-hydroxyethyl)piperidin-3-yl)-1H-indole-2-carboxamide] | 273 | –
27 | COC(=O)CN1CCC(c2ccc3[nH]c(C(=O)Nc4ccc(F)cc4)cc3c2)CC1 [Example 43, {4-[2-(4-Fluoro-phenylcarbamoyl)-1H-indol-5-yl]-piperidin-1-yl}-acetic acid methyl ester] | 2470 | –
28 | CC(C)N1CCC(c2ccc3[nH]c(C(=O)Nc4ccc(F)cc4F)cc3c2)CC1 [Example 29, 5-(1-Isopropyl-piperidin-4-yl)-1H-indole-2-carboxylic acid (2,4-difluoro-phenyl)-amide] | 12600 | –
29 | CCCN1CCC(c2ccc3[nH]c(C(=O)Nc4ccc(F)cc4)cc3c2)CC1 [Example 40, 5-[1-Propyl-piperidin-4-yl]-1H-indole-2-carboxylic acid (4-fluoro-phenyl)-amide] | 1700 | –
30 | CC(C)S(=O)(=O)N1CCC(c2ccc3[nH]c(C(=O)Nc4cc(F)cc(F)c4)cc3c2)C1 (centres unmarked) [Example 12, 5-[1-(Propane-2-sulfonyl)-pyrrolidin-3-yl]-1H-indole-2-carboxylic acid (3,5-difluoro-phenyl)-amide] | – | 1710
31 | O=C(Nc1cccc(F)c1)c1cc2cc([C@@H]3CCCN(C4CC4)C3)ccc2[nH]1 [Example 117, (S)-5-(1-Cyclopropylpiperidin-3-yl)-N-(3-fluorophenyl)-1H-indole-2-carboxamide] | 4360 | –
32 | O=C(Nc1cncc(F)c1)c1cc2cc(C3CCNC3)ccc2[nH]1 (centres unmarked) [Example 75, N-(5-Fluoropyridin-3-yl)-5-(pyrrolidin-3-yl)-1H-indole-2-carboxamide] | 1310 | –
33 | C[C@@H](c1ccc2[nH]c(C(=O)Nc3cc(F)cc(F)c3)cc2c1)[C@H]1CCN(CC(F)(F)F)C1 [Example 121, N-(3,5-Difluorophenyl)-5-((R)-1-((R)-1-(2,2,2-trifluoroethyl)pyrrolidin-3-yl)ethyl)-1H-indole-2-carboxamide] | 7480 | –
34 | N#CCN1CC[C@@H](c2ccc3[nH]c(C(=O)Nc4cccc(F)c4)cc3c2)C1 [Example 109, (S)-5-(1-(Cyanomethyl)pyrrolidin-3-yl)-N-(3-fluorophenyl)-1H-indole-2-carboxamide] | 472 | –
35 | O=C(Nc1cccc(F)c1)c1cc2cc(C3CCCN(CC4CCCO4)C3)ccc2[nH]1 (centres unmarked) [Example 68, N-(3-Fluorophenyl)-5-(1-((tetrahydrofuran-2-yl)methyl)piperidin-3-yl)-1H-indole-2-carboxamide] | 777 | –
